{"source": "patent US10501748B2", "about": "“Methods and compositions for integration of an exogenous sequence within the genome of plants” (Dow AgroSciences LLC, priority 2013, dated 2019)", "key": {"[1]": {"system": "regenerated plants of cv. Bobwhite MPB26RH", "assay": "basal tolerance to IMAZAMOX at the plant rooting stage", "format": "in vivo, Triticum aestivum", "conditions": "all concentrations tested (100-500 nM), 3 weeks", "description": "The basal tolerance of the donor wheat line cv. Bobwhite MPB26RH to IMAZAMOX® at the plant rooting stage was determined as follows: Scutella of immature zygotic embryos from the donor wheat line were isolated as described previously and placed in 10 cm PETRI™ dishes containing CIM medium. Somatic embryogenic callus was allowed to form by incubating at 24° C. in the dark for 4 weeks. The SEC was transferred to 10 cm PETRI™ dishes containing DRM medium and incubated for 2 weeks at 24° C. under a 16/8 (light/dark) hour photoperiod to allow plant regeneration to take place. Regenerated plants were transferred to 10 cm PETRI™ dishes containing RM medium supplemented with 0, 100, 200, 300, 400, 500 nM IMAZAMOX®, respectively. Twenty regenerated plants were placed in each PETRI™ dish. A total of 60 regenerated plants were tested for basal tolerance response at each IMAZAMOX® concentration. After incubation for 3 weeks at 24° C. under a 16/8 (light/dark) hour photoperiod in a growth room, the root formation response was recorded."}, "[2]": {"system": "protoplasts of SEC-derived cell suspension culture of cv. Bobwhite MPB26RH", "assay": "basal tolerance to IMAZAMOX of protoplast agarose bead-type cultures (calli growth)", "format": "cell-based, Triticum aestivum", "conditions": "2 weeks", "description": "IMAZAMOX® selection conditions are optimized using protoplasts derived from somatic embryogenic callus (SEC)-derived cell suspension culture of the wheat line cv. Bobwhite MPB26RH. While protoplasts derived from Bobwhite MPB26RH are non-totipotent (i.e., cannot be used to regenerate entire plants), the selection conditions established for enriching for events expressing the AHAS (653N) mutation are expected to be transferable to any protoplast-based transformation system based on a totipotent wheat genotype, which those in the art would recognize. The experiments conducted establish the basal tolerance of the wild-type donor wheat line cv. Bobwhite MPB26RH (S653/S653 genotype, which confers susceptibility to imidazolinones) to IMAZAMOX®. The use of IMAZAMOX® selection conditions stronger than basal tolerance will strongly enrich for transformed cells expressing the AHAS (S653N) mutation.\nFurther transformation methods are applicable. For example a cell suspension culture for wheat line cv. Bobwhite MPB26RH can be established. Somatic embryogenic callus (SEC) is induced from immature zygotic embryos of wheat line cv. […]\nThe basal tolerance of wheat line cv. Bobwhite MPB26RH to IMAZAMOX® is determined by incubating the agarose bead-type cultures in media supplemented with 0, 50, 100, 200, 400 and 600 nM IMAZAMOX® and assessing the rate of calli growth after 2 weeks."}}, "data": [{"smiles": "COCc1cnc(C2=NC(C)(C(C)C)C(=O)N2)c(C(=O)O)c1", "note": "(centres unmarked) [IMAZAMOX]", "values": [{"measurement": "root formation compared to untreated samples", "setting": "[1]", "result": "severely restricted"}, {"measurement": "concentrations that impede calli development", "setting": "[2]", "result": "higher than 200 nM"}]}]}
